# Reference: patent US9828379B2 (priority 2013, dated 2017)
# How the values were obtained:
# Mouse brain MAGL = molecular target: T1, Mouse brain MAGL (Mus musculus, UniProt O35678); assay: Mouse brain proteomes from inhibitor treated mice (oral gavage, ABPP analysis); assay type: in vivo; conditions: p.o., sacrificed 4 h following administration
# T1 construct: from tissue; host or cells: brain of wild-type C57Bl/6J mice dosed by oral gavage
# T1 sequence (O35678 1-303): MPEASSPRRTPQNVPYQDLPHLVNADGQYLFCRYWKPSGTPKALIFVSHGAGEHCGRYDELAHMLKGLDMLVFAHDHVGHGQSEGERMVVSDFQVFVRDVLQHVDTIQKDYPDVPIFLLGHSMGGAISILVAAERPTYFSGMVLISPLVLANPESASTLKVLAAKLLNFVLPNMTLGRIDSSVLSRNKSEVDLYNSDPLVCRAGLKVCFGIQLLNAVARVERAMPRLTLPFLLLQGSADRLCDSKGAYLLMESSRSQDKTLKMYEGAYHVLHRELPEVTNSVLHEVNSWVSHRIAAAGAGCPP
# Experimental: After 30 min, FP—Rh (1.0 μL, 50 μM in DMSO) was added and the mixture was incubated for another 30 min at 37° C. Reactions were quenched with SDS loading buffer (50 μL-4×) and run on SDS-PAGE. Following gel imaging, serine hydrolase activity was determined by measuring fluorescent intensity of gel bands corresponding to MAGL, ABHD6 and FAAH using ImageJ 1.43 u software.
# Inhibitors were administered to wild-type C57Bl/6J by oral gavage in a vehicle of polyethylene glycol. Each animal was sacrificed 4 h following administration and brain proteomes were prepared and analyzed according to previously established methods (See Niphakis, M. J., et al. (2011) ACS Chem. Neurosci. and Long, J. Z., et al. Nat. Chem. Biol. 5:37-44).
# ABHD6 [1] = molecular target: T2, ABHD6 (Mus musculus, UniProt Q8R2Y0); assay: In vitro competitive activity-based protein profiling (Table 2, % inhibition at 1 μM); assay type: biochemical; conditions: read-out: % Inhibition at 1 μM ABHD6
# T2 sequence (Q8R2Y0 1-336): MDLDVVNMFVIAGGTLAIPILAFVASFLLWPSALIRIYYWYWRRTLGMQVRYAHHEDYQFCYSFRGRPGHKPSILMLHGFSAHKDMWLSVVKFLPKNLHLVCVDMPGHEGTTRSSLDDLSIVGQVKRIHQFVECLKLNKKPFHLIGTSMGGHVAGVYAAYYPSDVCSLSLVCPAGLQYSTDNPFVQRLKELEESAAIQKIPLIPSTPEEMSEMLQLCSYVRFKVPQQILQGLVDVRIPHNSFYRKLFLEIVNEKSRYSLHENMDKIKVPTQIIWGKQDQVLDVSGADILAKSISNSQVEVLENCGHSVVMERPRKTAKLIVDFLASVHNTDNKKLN
# FAAH [2] = molecular target: T3, FAAH (Mus musculus, UniProt O08914); assay: as above; assay type: biochemical; conditions: read-out: % Inhibition at 1 μM FAAH
# T3 sequence (O08914 1-579): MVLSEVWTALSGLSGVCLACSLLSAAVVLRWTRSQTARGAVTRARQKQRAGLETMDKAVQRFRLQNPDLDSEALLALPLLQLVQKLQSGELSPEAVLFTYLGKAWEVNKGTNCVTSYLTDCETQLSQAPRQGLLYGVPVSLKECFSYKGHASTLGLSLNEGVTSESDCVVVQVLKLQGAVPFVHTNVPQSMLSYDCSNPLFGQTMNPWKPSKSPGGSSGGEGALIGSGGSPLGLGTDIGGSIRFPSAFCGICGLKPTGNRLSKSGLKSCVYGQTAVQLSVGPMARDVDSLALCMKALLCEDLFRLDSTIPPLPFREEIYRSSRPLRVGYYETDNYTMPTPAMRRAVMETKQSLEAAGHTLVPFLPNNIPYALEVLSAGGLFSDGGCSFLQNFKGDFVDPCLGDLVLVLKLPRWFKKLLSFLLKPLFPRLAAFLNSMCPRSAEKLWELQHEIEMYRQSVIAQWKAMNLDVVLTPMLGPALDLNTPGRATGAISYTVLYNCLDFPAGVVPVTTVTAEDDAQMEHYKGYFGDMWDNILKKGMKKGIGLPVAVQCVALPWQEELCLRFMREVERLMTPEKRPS
# MAGL [3] = molecular target: T4, MAGL (Mus musculus, UniProt O35678); assay: biochemical; conditions: mouse; in vitro competitive ABPP; read-out: Mouse (IC50 value, nM) MAGL
# T4 sequence (O35678 1-303): T1 sequence (O35678 1-303)
# MAGL [4] = molecular target: T4, MAGL; assay: In vitro competitive activity-based protein profiling (Table 2, % inhibition at 1 μM); assay type: biochemical; conditions: read-out: % Inhibition at 1 μM MAGL
# Experimental: After 30 min, FP—Rh (1.0 μL, 50 μM in DMSO) was added and the mixture was incubated for another 30 min at 37° C. Reactions were quenched with SDS loading buffer (50 μL-4×) and run on SDS-PAGE.
# Cell lysates were diluted with mock proteomes for use in competitive ABPP experiments.
# ABHD6 [5] = molecular target: T2, ABHD6; assay: biochemical; conditions: in vitro competitive ABPP
# FAAH [6] = molecular target: T3, FAAH; assay: biochemical; conditions: in vitro competitive ABPP
SMILES,inhibition at 5 mg/kg (Mouse brain MAGL),inhibition at 1 µM (ABHD6 [1]),inhibition at 1 µM (FAAH [2]),IC50 (MAGL [3]),inhibition at 1 µM (MAGL [4]),IC50 (ABHD6 [5]),IC50 (FAAH [6])
"CCc1cc(CN2CC3CN(C(=O)OC(C(F)(F)F)C(F)(F)F)CC3C2)n(-c2ccccc2Cl)n1 (stereo not shown) [Example 169, 1,1,1,3,3,3-hexafluoropropan-2-yl 5-[[1-(2-chlorophenyl)-3-ethyl-1H-pyrazol-5-yl]methyl]-octahydropyrrolo[3,4-c]pyrrole-2-carboxylate]",≤ 25%,25 to 75%,< 25%,< 100 nM,> 75%,1000 to 10000 nM,1000 to 10000 nM
"CCn1cc(CN2CC3CN(C(=O)OC(C(F)(F)F)C(F)(F)F)CC3C2)c(-c2ccc(N3CCCCC3)cc2)n1 (stereo not shown) [Example 133, 1,1,1,3,3,3-hexafluoropropan-2-yl 5-([1-ethyl-3-[4-(piperidin-1-yl)phenyl]-1H-pyrazol-4-yl]methyl)-octahydropyrrolo[3,4-c]pyrrole-2-carboxylate]",≤ 25%,< 25%,< 25%,< 100 nM,> 75%,1000 to 10000 nM,1000 to 10000 nM
"O=C(OC(C(F)(F)F)C(F)(F)F)N1CC2CN(Cc3cccc(Cl)c3N3CCC(F)CC3)CC2C1 (stereo not shown) [Example 159, 1,1,1,3,3,3-hexafluoropropan-2-yl 5-[[3-chloro-2-(4-fluoropiperidin-1-yl)phenyl]methyl]-octahydropyrrolo[3,4-c]pyrrole-2-carboxylate]",≤ 25%,< 25%,< 25%,< 100 nM,> 75%,1000 to 10000 nM,> 10000 nM
"CC(C)n1cc(CN2CC3CN(C(=O)OC(C(F)(F)F)C(F)(F)F)CC3C2)c(-c2cccc(Cl)c2)n1 (stereo not shown) [Example 174, 1,1,1,3,3,3-hexafluoropropan-2-yl 5-[[3-(3-chlorophenyl)-1-(propan-2-yl)-1H-pyrazol-4-yl]methyl]-octahydropyrrolo[3,4-c]pyrrole-2-carboxylate]",≤ 25%,25 to 75%,< 25%,< 100 nM,> 75%,1000 to 10000 nM,1000 to 10000 nM
"CCn1cc(CN2CC3CN(C(=O)OC(C(F)(F)F)C(F)(F)F)CC3C2)c(-c2ccccc2N2CCC2)n1 (stereo not shown) [Example 63, 1,1,1,3,3,3-Hexafluoropropan-2-yl 5-([3-[2-(azetidin-1-yl)phenyl]-1-ethyl-1H-pyrazol-4-yl]methyl)-octahydropyrrolo[3,4-c]pyrrole-2-carboxylate]",≥ 75%,25 to 75%,< 25%,< 100 nM,> 75%,100 to 1000 nM,> 10000 nM
"CCn1ncc(CN2CC3CN(C(=O)OC(C(F)(F)F)C(F)(F)F)CC3C2)c1C(=O)NCCc1cccc(Cl)c1 (stereo not shown) [Example 180, 1,1,1,3,3,3-hexafluoropropan-2-yl 5-((5-((3-chlorophenethyl)carbamoyl)-1-ethyl-1H-pyrazol-4-yl)methyl)hexahydropyrrolo[3,4-c]pyrrole-2(1H)-carboxylate]",≤ 25%,< 25%,< 25%,< 100 nM,> 75%,1000 to 10000 nM,> 10000 nM
"O=C(OC(C(F)(F)F)C(F)(F)F)N1CC2CN(Cc3cccc(C(F)(F)F)c3N3CCOCC3)CC2C1 (stereo not shown) [Example 45, 1,1,1,3,3,3-Hexafluoropropan-2-yl 5-[[2-(morpholin-4-yl)-3-(trifluoromethyl)phenyl]methyl]-octahydropyrrolo[3,4-c]pyrrole-2-carboxylate]",≥ 75%,< 25%,< 25%,< 100 nM,> 75%,1000 to 10000 nM,1000 to 10000 nM
